Experimental data taken from BindingDB's records for PubMed 2498315 (University of California San Diego, 1989).

Molecular target: Phospholipase A2 (Homo sapiens, UniProt P04054)
Experiment: Phospholipase A2 Vesicle Assay
Conditions: pH 9; 40 °C
From the text: Inhibition assay using phospholipase A2.

Chain of Phospholipase A2 (P04054 whole entry): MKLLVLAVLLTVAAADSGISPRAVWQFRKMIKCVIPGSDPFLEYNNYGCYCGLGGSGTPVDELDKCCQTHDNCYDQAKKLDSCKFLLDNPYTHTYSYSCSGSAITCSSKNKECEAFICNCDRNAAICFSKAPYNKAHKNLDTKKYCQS

Structure (SMILES) | IC50
O=C(CBr)c1ccc(Br)cc1 [2-bromo-1-(4-bromophenyl)ethan-1-one] | 550 µM
CCCCCCCCCCC/C=C/C(C)(C)/C=C/CCCC(=O)O [7,7-dimethyl-5,8-eicosadienoic acid] | 16 µM
CC(C)=CCC/C(C)=C/C/C(C=O)=C\CCC1=CC(=O)OC1O (stereo not drawn) [Manoalogue] | 26 µM
